In patent US20110053947A1, “Arylchalcogenoarylalkyl-substituted imidazolidine-2,4-diones, process for preparation thereof, medicaments comprising these compounds and use thereof” (SANOFI-AVENTIS, priority 2008, published 2011):
Read-outs that look alike come from different tables or passages of the source.

Experiments:
[1] = molecular target: T1, cannabinoid CB1 receptor (CB1) (Mus musculus, UniProt P47746); assay: Antagonization of CB1-mediated hypothermia; assay type: in vivo; conditions: female NMRI mice; 1.25 mg/kg intraperitoneally; within 30 min
T1 construct: from tissue; host or cells: whole animal (female NMRI mice)
T1 sequence (P47746 whole entry): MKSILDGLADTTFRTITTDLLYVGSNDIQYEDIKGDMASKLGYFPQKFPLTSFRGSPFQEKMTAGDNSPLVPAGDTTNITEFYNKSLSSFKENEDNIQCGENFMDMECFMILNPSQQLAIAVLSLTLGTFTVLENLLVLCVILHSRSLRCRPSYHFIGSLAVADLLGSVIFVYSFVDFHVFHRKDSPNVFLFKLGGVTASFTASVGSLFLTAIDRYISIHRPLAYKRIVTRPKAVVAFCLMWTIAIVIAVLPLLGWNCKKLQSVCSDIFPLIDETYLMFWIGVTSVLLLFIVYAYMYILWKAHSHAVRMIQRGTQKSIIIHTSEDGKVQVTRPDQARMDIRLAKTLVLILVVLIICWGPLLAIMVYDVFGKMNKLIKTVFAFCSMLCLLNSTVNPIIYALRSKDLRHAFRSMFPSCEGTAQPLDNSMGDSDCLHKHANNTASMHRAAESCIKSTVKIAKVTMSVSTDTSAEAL
Description: “Antagonization of CB 1-mediated Hypothermia”
The test is used to measure the potency of cannabinoid CB1 receptor (CB1) antagonists. What is measured is the extent to which the CB1 antagonists to be tested are capable of preventing or of antagonizing hypothermia induced by a CB1 agonist.
Female NMRI mice, 25-35 g in weight, are used. The mice are accustomed to the housing conditions for at least one week.
At time 0 min, the animals are treated orally, intravenously or intraperitoneally with the CB1 antagonist to be tested. 30 min later, the CB1 agonist CP55.940, 1.25 mg/kg, is administered to the mice intraperitoneally. This brings about a fall in the body temperature by 5-6° C. within 30 min. The body temperature is measured rectally for the first time 30 min before the test substance administration and then every 30 min after this administration, if appropriate immediately before a substance administration, over 4 hours.
The potency of the test substances is reported as the percentage decrease in the area under the temperature-time curve which is formed firstly by the average basal temperature, and secondly by the temperature-time curve, of the animals treated exclusively with the CB1 antagonist.

[2] = molecular target: T2, CHO-K1/cannabinoid CB1 (hCB1R) (Homo sapiens, UniProt P21554); assay: Binding to the CB1 receptor ([3H]-SR141716A displacement)
T2 construct: expressed in transfected cells; host or cells: CHO-K1
T2 sequence (P21554 whole entry): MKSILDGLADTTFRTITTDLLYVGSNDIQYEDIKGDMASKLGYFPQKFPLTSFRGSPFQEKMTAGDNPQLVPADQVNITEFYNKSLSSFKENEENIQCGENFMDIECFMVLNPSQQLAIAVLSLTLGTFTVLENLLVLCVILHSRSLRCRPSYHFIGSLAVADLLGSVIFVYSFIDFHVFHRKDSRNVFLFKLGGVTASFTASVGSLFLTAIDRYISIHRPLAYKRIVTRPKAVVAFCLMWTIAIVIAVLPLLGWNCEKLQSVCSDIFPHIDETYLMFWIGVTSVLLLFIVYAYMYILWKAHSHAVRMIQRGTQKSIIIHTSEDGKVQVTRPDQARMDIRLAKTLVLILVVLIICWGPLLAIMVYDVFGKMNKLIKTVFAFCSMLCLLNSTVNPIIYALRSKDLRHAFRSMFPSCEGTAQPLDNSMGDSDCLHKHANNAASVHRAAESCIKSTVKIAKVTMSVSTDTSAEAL
Description: Binding to the CB 1 Receptor:
Test compounds: The compounds (3 μl, 10 mM, 100% DMSO), pipetted into 96-well PP microtiter plates, were diluted with 27 μl of 100% DMSO (dimethyl sulfoxide). Proceeding from this solution, further 3-fold dilution steps were undertaken by transferring 10 μl in each case to a new PP microtiter plate and adding a further 20 μl of 100% DMSO. In each case 6 μA of these solutions were transferred into new 96-well PP microtiter plates and made up with 144 μl of assay buffer. The end concentrations ranged from 10 μM to 0.005 μM. Negative control: AM 251, dissolved in assay buffer with 1% DMSO, was added to the dilution series in the microtiter plates as a control. The end concentration was 1 μM. Blank control: assay buffer with 1% DMSO was added to the dilution series of the microtiter plates as a blank control.
Summary of the Assay Parameters:
The values were calculated using the corrected raw data.
The values reported were obtained as average values of a double determination. The IC50 values were calculated from the measurements with the program Xlfit, formula 205. Ki values were obtained from the IC50 and Kd values utilizing the Cheng-Prusoff equation: […]
Literature: Cheng, Y.-C., and Prusoff, W. H. (1973) Biochem. Pharmacol 22, 3099-3108 Results: Ki values of example compounds; Table 2: […]

[3] = molecular target: T3, cannabinoid 1 receptor (hCB1R) (Homo sapiens, UniProt P21554); assay: In vitro functional assay with recombinant cells (FLIPR), CB1; assay type: cell-based; conditions: intracellular Ca2+ change after reference agonist, 20 min preincubation
T3 construct: expressed in transfected cells; host or cells: HEK293
T3 sequence (P21554 whole entry): as above
Description: (§1) In vitro functional assays with recombinant cells:
(§2) Function-testing assays were performed by means of the FLIPR technique (“Fluorometric Imaging Plate Reader”, Molecular Devices Corp.).
(§3) To this end, ligand-induced changes in the intracellular concentration of Ca^2+ in recombinant HEK293 cells, which expressed both a cannabinoid receptor (CB1 or CB2) and G-protein Galphal6, were determined. For the studies, cells were sown into 96-well microtiter plates (60 000 cells/well) and left to grow overnight. The medium was removed and the cells were incubated in buffer which contained the fluorescent dye Fluo-4. After this loading with dye, the cells were washed, test substance was added dissolved in buffer, the mixture was incubated for 20 minutes, a known cannabinoid receptor agonist as a reference agonist was added in buffer and, finally, the changes in the intracellular Ca^2+ concentration were measured in the FLIPR unit.
Results were presented as the percentage change relative to the control (0%: analogous experiment without test substance and without reference agonist, i.e. only with buffer; 100%: analogous experiment without test substance, but with reference agonist in excess), and used to calculate dose/action curves, and IC50 values were determined.
The values of the functional assay compared to the cannabinoid 1 receptor including illustrative selectivities compared to the cannabinoid 2 receptor can be taken from table 1 which follows.

[4] = molecular target: T4, cannabinoid 2 receptor (hCB2R) (Homo sapiens, UniProt P34972); assay: In vitro functional assay with recombinant cells (FLIPR), CB2; assay type: cell-based
T4 construct: expressed in transfected cells; host or cells: HEK293
T4 sequence (P34972 whole entry): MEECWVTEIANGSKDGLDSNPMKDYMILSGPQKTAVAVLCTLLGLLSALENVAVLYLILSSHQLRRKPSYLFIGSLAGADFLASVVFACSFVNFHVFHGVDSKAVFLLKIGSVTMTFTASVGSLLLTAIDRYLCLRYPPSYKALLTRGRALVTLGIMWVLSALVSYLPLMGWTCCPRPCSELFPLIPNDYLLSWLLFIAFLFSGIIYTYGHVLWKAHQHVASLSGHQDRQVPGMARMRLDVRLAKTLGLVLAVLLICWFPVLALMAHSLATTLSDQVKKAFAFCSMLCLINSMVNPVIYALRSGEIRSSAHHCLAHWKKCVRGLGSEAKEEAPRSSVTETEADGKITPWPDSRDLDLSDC
Description: as §1, §2, §3

[5] = recombinant HEK293 cells expressing CB1 and G-protein, read-out: hCB1R: FLIPR, IC50

For CCCCCCC(C)(C)c1ccc([C@@H]2C[C@H](O)CC[C@H]2CCCO)c(O)c1 [CP55.940], the “fall in the body temperature” value [1] was 5-6 °C.
For CC1(C)C(=O)N(c2ccc(C#N)c(C(F)(F)F)c2)C(=O)N1Cc1ccccc1NC(=O)Nc1ccc(S(N)(=O)=O)cc1 [Example 1, 4-(3-{2-[3-(4-Cyano-3-trifluoromethylphenyl)-5,5-dimethyl-2,4-dioxo-imidazolidin-1-ylmethyl]phenyl}ureido)benzenesulfonamide], the Ki ([2]; [3H]-SR141716A 0.5 nM, Ki from IC50 and Kd by Cheng-Prusoff, average of double determination, read-out: hCB1R, Bindung Ki) was 20 nM, the IC50 [3, 5] was 24 nM and the IC50 [4] was > 10000 nM.
With COC(=O)c1ccc(NC(=O)Nc2ccccc2CN2C(=O)N(c3ccc(C#N)c(C(F)(F)F)c3)C(=O)C2(C)C)cc1 [Example 3, methyl 4-(3-{2-[3-(4-cyano-3-trifluoromethylphenyl)-5,5-dimethyl-2,4-dioxoimidazolidin-1-ylmethyl]phenyl}ureido)benzoate] the Ki [2] was 11 nM, the IC50 ([3]; hCB1R: FLIPR, IC50, recombinant HEK293 cells expressing CB1 and G-protein) was 19 nM and the IC50 ([4]; recombinant HEK293 cells expressing CB2 and G-protein, intracellular Ca2+ change after reference agonist, 20 min preincubation, read-out: hCB2R: FLIPR, IC50) was > 10000 nM.
In the case of CCOc1ccc(NC(=O)Nc2ccccc2CN2C(=O)N(c3ccc(C#N)c(C(F)(F)F)c3)C(=O)C2(C)C)cc1 [Example 10, 1-{2-[3-(4-cyano-3-trifluoromethylphenyl)-5,5-dimethyl-2,4-dioxoimidazolidin-1-ylmethyl]phenyl}-3-(4-ethoxyphenyl)urea], the IC50 [3, 5] is reported as 53 nM and the IC50 [4] is reported as > 10000 nM.
